What was measured:
Adenosine receptor A3 = target: T1, Adenosine receptor A3 (Homo sapiens, UniProt P0DMS8); assay: Binding affinity for adenosine A3 receptor as inhibition of [125I]AB-MECA binding to human receptor expressed in HEK 293 cells; type: cell-based, HEK293
T1 sequence (P0DMS8 whole entry): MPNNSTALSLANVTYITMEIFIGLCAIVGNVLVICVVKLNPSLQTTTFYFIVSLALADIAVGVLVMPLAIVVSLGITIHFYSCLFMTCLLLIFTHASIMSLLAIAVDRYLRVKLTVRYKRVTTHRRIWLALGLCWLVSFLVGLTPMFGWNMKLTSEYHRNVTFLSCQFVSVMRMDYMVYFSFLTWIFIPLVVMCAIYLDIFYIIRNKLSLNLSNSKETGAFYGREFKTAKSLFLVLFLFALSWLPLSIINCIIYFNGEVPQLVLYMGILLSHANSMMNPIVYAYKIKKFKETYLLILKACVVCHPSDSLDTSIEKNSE

Adenosine receptor A1 = target: T2, Adenosine receptor A1 (Rattus norvegicus, UniProt P25099); assay: Binding affinity for adenosine A1 receptor as inhibition of 3[H]-R-PIA binding in rat brain; type: tissue-based
T2 sequence (P25099 whole entry): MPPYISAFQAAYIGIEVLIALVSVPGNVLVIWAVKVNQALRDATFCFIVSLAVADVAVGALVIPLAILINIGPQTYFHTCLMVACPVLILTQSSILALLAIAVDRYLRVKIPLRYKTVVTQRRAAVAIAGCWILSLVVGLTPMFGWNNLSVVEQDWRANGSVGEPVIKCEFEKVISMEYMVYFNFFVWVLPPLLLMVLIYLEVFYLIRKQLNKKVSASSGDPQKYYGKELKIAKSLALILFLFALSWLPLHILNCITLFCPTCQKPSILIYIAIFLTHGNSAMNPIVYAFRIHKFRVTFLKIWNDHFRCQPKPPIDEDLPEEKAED

Adenosine receptor A2a = Adenosine receptor A2a (Rattus norvegicus, UniProt P30543); assay: Binding affinity for adenosine A2a receptor as inhibition of 3[H]-CGS 21680 binding in rat striatum; type: tissue-based
Sequence of Adenosine receptor A2a (P30543 whole entry): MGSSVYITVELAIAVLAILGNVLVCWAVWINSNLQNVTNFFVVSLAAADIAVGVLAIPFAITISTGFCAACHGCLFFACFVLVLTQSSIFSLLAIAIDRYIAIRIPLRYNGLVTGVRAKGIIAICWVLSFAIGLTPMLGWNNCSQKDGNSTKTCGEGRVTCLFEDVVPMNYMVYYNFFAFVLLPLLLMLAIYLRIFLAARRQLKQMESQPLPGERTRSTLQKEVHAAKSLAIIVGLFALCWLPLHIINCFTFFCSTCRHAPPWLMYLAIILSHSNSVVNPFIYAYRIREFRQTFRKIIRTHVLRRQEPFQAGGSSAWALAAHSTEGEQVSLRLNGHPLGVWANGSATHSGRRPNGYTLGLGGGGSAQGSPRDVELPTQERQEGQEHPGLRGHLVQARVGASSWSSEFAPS

Compound | Ki (Adenosine receptor A3) | Ki (Adenosine receptor A1) | Ki (Adenosine receptor A2a)
CNC(=O)[C@H]1O[C@@H](n2cnc3c(NCc4ccccc4)ncnc32)[C@H](O)[C@@H]1O | 41 nM | 2400 nM | 2100 nM
O[C@@H]1[C@H](O)[C@@H](c2ccon2)O[C@H]1n1cnc2c(NCc3cccc(I)c3)nc(Cl)nc21 | 7.8 nM | 1900 nM | 1900 nM
CONc1nc(Cl)nc2c1ncn2[C@@H]1O[C@H](c2ccon2)[C@@H](O)[C@H]1O | 31 nM | 620 nM | > 10000 nM

Next, values leading:

Ki (Adenosine receptor A3) | Ki (Adenosine receptor A1) | Ki (Adenosine receptor A2a) | Compound
26 nM | – | – | CONc1nc(Cl)nc2c1ncn2[C@@H]1O[C@H](CCl)[C@@H](O)[C@H]1O
20 nM | 1230 nM | > 10000 nM | C=C[C@H]1O[C@@H](n2cnc3c(NOC)nc(Cl)nc32)[C@H](O)[C@@H]1O

From ChEMBL document CHEMBL1130877, “The synthesis of new adenosine A3 selective ligands containing bioisosteric isoxazoles” (Bioorg Med Chem Lett, 1998)
